Source: publication PMC6039436, “Radiobrominated benzimidazole-quinoline derivatives as Platelet-derived growth factor receptor beta (PDGFRβ) imaging probes” (Scientific Reports, 2018)
Several values for one entry are separate records, joined by “and”; a condition that tells them apart may be missing. Equal values may be shown once.

Key:
[1] = Biodistribution in ddY mice; assay type: in vivo; conditions: i.v. co-injection
Procedure, shortened: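 ddY mice got a 100 µL tail-vein injection of [^77Br]2 with [^125I]4, or [^77Br]3 with [^125I]5 (74 kBq each), in saline containing 10% ethanol and 1% tween-80. Animals were killed at 10 min, 1, 4 and 24 h; tumor-bearing mice were killed at 1 h. Resected tissues were weighed and gamma-counted with background correction, and values are %ID/g.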

BxPC3-luc tumor = experiment: Biodistribution in BxPC3-luc tumor-bearing mice; assay type: in vivo, BALB/c nu/nu mice; conditions: i.v. co-injection, 1 h
Procedure, shortened: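 BALB/c nu/nu mice bearing subcutaneous BxPC3-luc tumours received 74 kBq each of co-injected ^77Br and ^125I tracers i.v. in saline with 10% ethanol, 1% tween-80. Sacrificed 1 h postinjection; tissues weighed and gamma-counted. Values are %ID/g.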

[2] = n-octanol/phosphate buffer partition coefficient; assay type: physicochemical; conditions: n-octanol / 0.1 M phosphate buffer pH 7.4; read-out: n-octanol/phosphate buffer partition coefficient (log P)
Method: The n-octanol/phosphate buffer partition coefficients of [^77Br]2 were 2.36 ± 0.06 which were lower than [^77Br]3 (3.02 ± 0.04). These values are lower than radioiodinated compounds, [^125I]4 and [^125I]5 at 2.71 ± 0.03 and 3.19 ± 0.17, respectively.
Partition coefficients of [^77Br]2 and [^77Br]3 into n-octanol and 0.1 M phosphate buffer (PB) pH 7.4 were determined using the method described previously. The measurement was performed in quadruplicate. The partition coefficient was determined by calculating the ratio of cpm/mL of n-octanol to that of buffer and expressed as log P. Radioactivity of each layer were counted by a gamma counter.

[3] = In vitro stability in 0.1 M PBS (pH 7.4); assay type: physicochemical; conditions: 24 h incubation at 37 °C, purity by TLC
Method: The stability of [^77Br]2 and [^77Br]3 in 0.1 M phosphate-buffered saline (PBS) (pH 7.4) was high (93.6 ± 0.9% and 93.0 ± 0.6%, respectively). There was no significant decomposition after 24 h incubation at 37 °C for either radiotracer.
The stability of radiolabeled compounds, [^77Br]2 and [^77Br]3, were analyzed as described previously. The purities radiolabeled compounds were determined by TLC using chloroform/methanol = 5/1 and 20/1 as a developing solvent for [^77Br]2 and [^77Br]3, respectively. The results were confirmed by RP-HPLC.

- Radioactivity in Blood ([1]; 10 min): 1.68 (0.07) %injected dose/gram tissue
- Radioactivity in Bone ([1]; 10 min): 1.88 (0.15) %injected dose/gram tissue
- Radioactivity in Brain ([1]; 10 min): 0.43 (0.02) %injected dose/gram tissue
- Radioactivity in Heart ([1]; 10 min): 2.70 (0.24) %injected dose/gram tissue
- Radioactivity in Kidney ([1]; 10 min): 5.21 (0.53) %injected dose/gram tissue
- Radioactivity in Large intestine ([1]; 10 min): 0.88 (0.08) %injected dose/gram tissue
- Radioactivity in Liver ([1]; 10 min): 25.80 (2.54) %injected dose/gram tissue
- Radioactivity in Lung ([1]; 10 min): 3.08 (0.65) %injected dose/gram tissue
- Radioactivity in Muscle ([1]; 10 min): 1.28 (0.19) %injected dose/gram tissue
- Radioactivity in Pancreas ([1]; 10 min): 2.61 (0.20) %injected dose/gram tissue
- Radioactivity in Small intestine ([1]; 10 min): 3.28 (0.32) %injected dose/gram tissue
- Radioactivity in Spleen ([1]; 10 min): 3.05 (1.14) %injected dose/gram tissue
- Radioactivity in Stomach ([1]; 10 min): 1.31 (0.22) %injected dose /organ
- Radioactivity in Blood ([1]; 1 h): 0.65 (0.05) %injected dose/gram tissue
- Radioactivity in Bone ([1]; 1 h): 1.60 (0.27) %injected dose/gram tissue
- Radioactivity in Brain ([1]; 1 h): 0.22 (0.05) %injected dose/gram tissue
- Radioactivity in Heart ([1]; 1 h): 1.14 (0.09) %injected dose/gram tissue
- Radioactivity in Kidney ([1]; 1 h): 2.03 (0.33) %injected dose/gram tissue
- Radioactivity in Large intestine ([1]; 1 h): 2.23 (0.75) %injected dose/gram tissue
- Radioactivity in Liver ([1]; 1 h): 7.59 (0.76) %injected dose/gram tissue
- Radioactivity in Lung ([1]; 1 h): 1.18 (0.10) %injected dose/gram tissue
- Radioactivity in Muscle ([1]; 1 h): 0.91 (0.45) %injected dose/gram tissue
- Radioactivity in Pancreas ([1]; 1 h): 1.24 (0.16) %injected dose/gram tissue
- Radioactivity in Small intestine ([1]; 1 h): 14.30 (0.23) %injected dose/gram tissue
- Radioactivity in Spleen ([1]; 1 h): 1.47 (0.20) %injected dose/gram tissue
- Radioactivity in Stomach ([1]; 1 h): 1.10 (0.24) %injected dose /organ
- Radioactivity in Blood ([1]; 4 h): 0.25 (0.04) %injected dose/gram tissue
- Radioactivity in Bone ([1]; 4 h): 1.32 (0.12) %injected dose/gram tissue
- Radioactivity in Brain ([1]; 4 h): 0.19 (0.01) %injected dose/gram tissue
- Radioactivity in Heart ([1]; 4 h): 0.65 (0.05) %injected dose/gram tissue
- Radioactivity in Kidney ([1]; 4 h): 0.65 (0.15) %injected dose/gram tissue
- Radioactivity in Large intestine ([1]; 4 h): 28.99 (2.21) %injected dose/gram tissue
- Radioactivity in Liver ([1]; 4 h): 2.19 (1.38) %injected dose/gram tissue
- Radioactivity in Lung ([1]; 4 h): 0.45 (0.07) %injected dose/gram tissue
- Radioactivity in Muscle ([1]; 4 h): 0.57 (0.24) %injected dose/gram tissue
- Radioactivity in Pancreas ([1]; 4 h): 0.68 (0.10) %injected dose/gram tissue
- Radioactivity in Small intestine ([1]; 4 h): 4.50 (2.02) %injected dose/gram tissue
- Radioactivity in Spleen ([1]; 4 h): 0.88 (0.08) %injected dose/gram tissue
- Radioactivity in Stomach ([1]; 4 h): 0.59 (0.26) %injected dose /organ
- Radioactivity in Blood ([1]; 24 h): 0.39 (0.05) %injected dose/gram tissue
- Radioactivity in Bone ([1]; 24 h): 1.32 (0.17) %injected dose/gram tissue
- Radioactivity in Brain ([1]; 24 h): 0.20 (0.02) %injected dose/gram tissue
- Radioactivity in Heart ([1]; 24 h): 0.72 (0.11) %injected dose/gram tissue
- Radioactivity in Kidney ([1]; 24 h): 0.37 (0.05) %injected dose/gram tissue
- Radioactivity in Large intestine ([1]; 24 h): 0.18 (0.00) %injected dose/gram tissue
- Radioactivity in Liver ([1]; 24 h): 0.18 (0.04) %injected dose/gram tissue
- Radioactivity in Lung ([1]; 24 h): 0.56 (0.07) %injected dose/gram tissue
- Radioactivity in Muscle ([1]; 24 h): 0.54 (0.04) %injected dose/gram tissue
- Radioactivity in Pancreas ([1]; 24 h): 0.68 (0.03) %injected dose/gram tissue
- Radioactivity in Small intestine ([1]; 24 h): 0.18 (0.05) %injected dose/gram tissue
- Radioactivity in Spleen ([1]; 24 h): 0.72 (0.24) %injected dose/gram tissue
- Radioactivity in Stomach ([1]; 24 h): 0.35 (0.06) %injected dose /organ
- Radioactivity in Stomach (BxPC3-luc tumor): 0.67 (0.14) %injected dose /organ
- logP [2]: 3.02 ± 0.04
- Stability in 0.1 M PBS (pH 7.4) [3]: 93.0 ± 0.6%
SMILES: COCCOc1ccc2c(c1)ncn2-c1ccc2cccc(N3CCC(NC(=O)c4cccc([77Br])c4)CC3)c2n1 [[^77Br]3, [^77Br]-N-3-bromobenzoyl-1-{2-[5-(2-methoxyethoxy)-1H-benzo[d]imidazol-1-yl]quinolin-8-yl}-piperidin-4-amine]
- Radioactivity in Blood (BxPC3-luc tumor): 1.16 (0.02) %injected dose/gram of tissue
- Radioactivity in Bone (BxPC3-luc tumor): 1.32 (0.08) %injected dose/gram of tissue
- Radioactivity in Brain (BxPC3-luc tumor): 0.17 (0.02) %injected dose/gram of tissue
- Radioactivity in BxPC3-luc tumor (BxPC3-luc tumor): 1.15 %injected dose/gram of tissue and 1.15 (0.35) %injected dose/gram of tissue
- Radioactivity in Heart (BxPC3-luc tumor): 1.83 (0.04) %injected dose/gram of tissue
- Radioactivity in Kidney (BxPC3-luc tumor): 5.95 (0.16) %injected dose/gram of tissue
- Radioactivity in Large intestine (BxPC3-luc tumor): 5.53 (0.96) %injected dose/gram of tissue
- Radioactivity in Liver (BxPC3-luc tumor): 19.82 (2.48) %injected dose/gram of tissue
- Radioactivity in Lung (BxPC3-luc tumor): 3.02 (0.51) %injected dose/gram of tissue
- Radioactivity in Muscle (BxPC3-luc tumor): 1.05 (0.18) %injected dose/gram of tissue
- Radioactivity in Pancreas (BxPC3-luc tumor): 2.15 (0.13) %injected dose/gram of tissue
- Radioactivity in Small intestine (BxPC3-luc tumor): 32.72 (3.10) %injected dose/gram of tissue
- Radioactivity in Spleen (BxPC3-luc tumor): 2.51 (0.17) %injected dose/gram of tissue
